Values quoted from earlier work, collected in US8476227B2, “Methods of activating a melanocortin-4 receptor pathway in obese subjects” (Ethicon Endo-Surgery, Inc., priority 2010, dated 2013).

Conditions: rat models; background statement, no dose or regimen given

NDP-MSH
body weight gain: attenuate
food intake: attenuate
